We go through one compound from EP0574185B1, “PGE1 analogs” (NEWPHARMA INTERNATIONAL CORPORATION, priority 1992, dated 1993).

Molecules are shown by their SMILES.

Test [1] relates to isolated uterus under diestrous (without any spontaneous contractions). The test is described as follows: B2: effect on isolated uterus of diestrous rat without spontaneous contractions (De Jalon solution with sodium diclofenac, non-cumulative curves). The arrangement: species or system Wistar rats. The conditions noted are these: for Area (g of tension/2 min): B2, basal 1,96. How it is done: (B1)- Concentration-response curves on isolated rat uterus under diestrous condition were carried out. Wistar rats weighing 250 g to 300 g were employed. The diestrous phase was detected by a daily vaginal smear. The uterus was dissected out and a portion of a horn was placed in a 10 ml organ bath in a similar way to that described in part A. The bath temperature was maintained at 37°C, bubbled with a mixture of 95 % O2 and 5 % CO2 in a Krebs nutrient solution. The organ was left to stabilize for one hour. The isolated uterus presented basal spontaneous contractions under these experimental conditions. Cumulative concentration-response curves were carried out with the addition of either 100 µl or 300 µl of solutions of either natural prostaglandins or B-407 in concentrations of 10^-10 M to 10^-6 M, each 15 minutes without any washing. Uterine contractions and quantitation were performed as described in (A). (B2)- Concentration-response curves in isolated uterus under diestrous (without any spontaneous contractions) were carried out. Sodium diclofenac was added to De Jalon nutrient solution to a final concentration of 4x10^-6 M. The organ was left to stabilize until the absence of spontaneous contractions. Non-cumulative concentration-response curves were obtained. Recordings of the contractions and their quantitation were performed as described in (A).
The frequency and magnitude of the responses were globally evaluated by calculating the total area recorded at a fixed time period as will be further explained. The areas under the curve of the recording paper, over 15 minutes periods, were cut and weighed both in the concentration-response curves and in the potentiating experiments.
The calibration was made by weighing a piece of paper which corresponded to a tension of 1 g at the working sensitivity along 2 minutes. Therefore, a relationship of area expressed in g/2 min was obtained and then the weights of the areas of the responses were transformed to unities of area. The results were expressed as the mean ± the standard error of the areas obtained. The statistical evaluation of the differences was carried out either by ANOVA or by Student's-t-test, as appropriate.

The test system of test [2] is guinea pig isolated trachea. Kind of test: Relaxation of histamine contracted guinea pig tracheal chain in vitro. The settings on record: 10^-5 M; percentage on the histamine (1x10^-6 M) induced contraction; n = 8; vehicle -7 ± 3. The arrangement: species or system guinea pigs. Here is the method:
The effect of B-407 on isolated trachea was evaluated in guinea pigs weighing 700 g. The animals were killed and the trachea was dissected out, transferred to a dish containing Krebs solution and cut transversely between the segments of cartilage, so as to give a number of rings of tracheal muscle. Five rings were tied up together with cotton threads, so as to form a chain, which was then mounted in a 10 ml bath with Krebs solution at 37°C, aerated with a mixture of oxygen (95 %) and carbon dioxide (5 %). The load on the lever was 0.4 g. The organ was left to stabilize for 15 to 30 min.
Enough quantity (100 µl) of 0.1 mM histamine solution was added to the bath (1x10^-6 M) in order to obtain a contraction of 0.2 g to 0.5 g of tension. After the contraction reached a plateau, 100 µl of ethanol: distilled water (1:1) (vehicle as control) was added to the bath. Eight minutes later, the preparation was relaxed by washing 4 to 6 times. […]
The relaxation induced by B-407 was expressed as a percentage on the histamine induced contraction. The average ± standard error of all the determinations were calculated ["The guinea-pig tracheal chain"; "Pharmacological Experiments on Isolated Preparations". […]

The subject of a further test is guinea pigs. Kind of test: Histamine-aerosol induced bronchoconstriction in guinea pig. Format: in vivo. The settings on record: 150 µg/kg, i.p., 5 minutes before histamine challenge; n= 8; initial 115 ± 6, final 127 ± 4. Here is the method:
The protective effect of B-407 on the bronchoconstriction induced by histamine aerosol in male guinea pigs weighing 700 g was evaluated. One guinea pig at a time was placed into a 15 l hermetically closed container. Then 200 µl of histamine solution (600 µg of histamine base) was sprayed with compressed air at a pressure of 1 PSI. The time at which the hypoxic symptoms (increase of breathing frequency, bronchospasm, dysnea, apnea and finally the collapse of the animal (falling down) was determined.
The working protocol comprised 3 parts: • 1) The determination of the falling down time of the guinea pigs exposed to the histamine aerosol was determined.
The results were expressed as the time in seconds elapsed before the animals fell down ["Antihistamine Agents" (Cap. 22) in: "Screening Methods in Pharmacology". Academic Press, New York (1965). Brit. J. Pharmacology. 16, 59 (1961); Arch. Intern. Pharmacodyn. 129, 77 (1960); J. Pharmacol. Exptl. Therap. 131, 73 (1961); Arch. Intern. Pharmacodyn. 115, 332 (1958); "Les Antihistaminiques de Synthése", Chapter 22, page 784 in : "Structure et activité pharmacodynamique de medicaments du systéme nerveux vegetatif". S. Karger Bale (Suisse)- New York: (1948)].

The next test has as its system rat uterus. Kind of test: Disappearance of exogenous PGF2α in rat uterus slices (R.I.A.). The arrangement: species or system Wistar rats. Here is the method:
An experiment was performed in which the disappearance of exogenous PGF2α was determined in the nutrient solution of slices of rat uterus both in the presence and absence of the synthetic PGE1 analog, B-407.
Seven Wistar rats weighing approximately 220 g were estrogenized by the subcutaneous administration of 100 µg/kg of 17β estradiol. Twenty-four hours later they were killed by decapitation. The uterine horns were dissected out and weighed. The horns were cut and washed with bubbled De Jalon nutrient solution plus 4x10^-7 M sodium diclofenac during 15 to 20 minutes. Both bubbling and diclofenac content were maintained in the following steps: each horn was then placed in a small organ bath and preincubated during 15 to 20 min with either the nutrient solution alone or containing B-407 10^-8 M or 10^-7 M. The assay was started by adding exogenous PGF2α (10^-8 M in the medium) to each horn previously changed to a new tube. A final volume of 0.4 ml was obtained with the addition of De Jalon solution at 37°C. Aliquots of […] were sampled at 0 min, 5 min, 15 min and 30 min. The PGF2α concentration in each sample was determined by R.I.A. (Sigma, NEN) and it was expressed as pg/mg of wet tissue.

Take `CCCCC(C)(O)C/C=C/[C@H]1[C@H](O)CC(=O)[C@@H]1CCCC/C=C/C(=O)OC` (mixture of isomers) [B-407, trans-Δ^2-15-deoxy-16-hydroxy-16-methyl PGE1 methyl ester]: the “maximum response of the uterotonic effect relative to the basal one” value in test [1] (B2, with diclofenac) is given as “duplicates the basal one”. In addition, the “Area (g of tension/2 min)” value in test [1] (1x10^-6 M) is reported as 4,24 g of tension/2 min; in test [1] (1x10^-7 M), 3,73 g of tension/2 min; in test [1] (1x10^-8 M), 2,10 g of tension/2 min; in test [1] (1x10^-9 M) it was 1,91 g of tension/2 min. Also, the “% of relaxation” value in test [2] stood at 35 ± 5%. Also, the “Falling down time (sec) by bronchospasm” value with guinea pigs amounted to 358 ± 4 s. Also, the “PGF2α (pg/mg tissue)” value with rat uterus (B-407 10^-7 M, time 0 min, control 655,4) is on record as 667,2 pg/mg tissue; in the test with rat uterus (B-407 10^-7 M, time 5 min, control 582.8) it was 623,7 pg/mg tissue; with rat uterus (B-407 10^-7 M, time 15 min, control 478.4) it was 561,7 pg/mg tissue; with rat uterus (B-407 10^-7 M, time 30 min, control 227.5), 528,4 pg/mg tissue; in the test with rat uterus (B-407 10^-8 M, time 0 min, control 655,4), 705,7 pg/mg tissue; in the test with rat uterus (B-407 10^-8 M, time 5 min, control 582.8), 705,9 pg/mg tissue. For the same compound, the “PGF2α (pg/mg tissue)” value in the test on rat uterus (B-407 10^-8 M, time 15 min, control 478.4) was 563,6 pg/mg tissue; in the test with rat uterus (B-407 10^-8 M, time 30 min, control 227.5) it was 403,7 pg/mg tissue.
